EP0054512A2, “Cephalosporin esters, process for their preparation and pharmaceutical compositions containing them” (CIBA-GEIGY AG, priority 1980, dated 1982)

System: Escherichia coli, Proteus spp. und anderen
Assay: Systemic gram-negative infection in the mouse, oral administration
Parameters: species or system Maus
Conditions: in vivo, oral administration to the mouse, systemic gram-negative infections, range across pathogens
Text: Die Verbindungen der Formel I, worin Am eine freie Aminogruppe ist und ihre pharmazeutisch verwendbaren, nichttoxischen Salze sind wertvolle, antibiotisch wirksame Substanzen, die insbesondere als antibakterielle Antibiotika verwendet werden können.

CCOC(=O)OC(C)OC(=O)C1=CCS[C@@H]2[C@H](NC(=O)/C(=N\OC)c3csc(N)n3)C(=O)N12 (stereo partly shown) [7ß-[2-(2-Amino-4-thiazolyl)-2-methoxyiminoacetamido]-3-cephem-4-carbonsäure-1-äthoxycarbonyloxyäthylester]
ED50: 0.3 to 150 mg/kg
